Experimental data: US20140097078A1, “DISTILLATION DEVICE AND METHOD” (GE HEALTHCARE LIMITED, priority 2011, published 2014)
Where two headings read alike, the source gives them in different places. One block for each substance: values may come before it.

Experiments:
[1] = Radiolysis / stability of [18F]FET-βAG-TOCA: percentage of parent compound over time; format: physicochemical; conditions: for Percentage of parent compound at time: T = 0 / Percentage of parent compound at time: T = 120 m / Percentage of parent compound at time: T = 240 m: ~10 ml in 3-6% EtOH/PBS
Experimental: The use of higher levels of fluorine-18 (0.5-1 Curie) was also investigated. […] Although radiolysis occurred during isolation, once the product had been fully formulated (6% EtOH/PBS (10 mL)) it appeared to be stable up to 6 h. During this experiment, the EOS yield after aseptic filtration was 13%. The starting fluorine-18 was then reduced to see enough material could be isolated for a clinical dose, whilst at the same time reducing radiolysis.
Additional experiments attempted to add ascorbic acid to the existing HPLC eluent (0.5% w/v), add a sodium ascorbate solution to the HPLC fraction collection vial (5 mg/mL (5 mL)) and elute the tC18 cartridge with a sodium ascorbate/EtOH solution (5 mg/mL/1% EtOH). Unfortunately, due to addition of ascorbic acid to the HPLC eluent, the purification became inefficient, showing very little elution of the stable reagents. […] The isolated yield was also unaffected and gave EOS of 14%. To avoid this problem, ethanol was investigated as a replacement for the ascorbic acid. After some optimisation, a suitable solvent system was found (25% MeCN (0.1% HCl), 75% H2O (0.1% HCl)+0.8% w/v EtOH) which could be used to purify the material at the same time as reducing radiolysis (97% parent T=0 min (n=1)) (Entry 5, Table 2).

[2] = Entry 1, starting activity 1 Curie
[3] = Entry 2, starting activity 600 mCi
[4] = Entry 3, starting activity 500 mCi
[5] = Entry 4, starting activity 500 mCi
[6] = Entry 5, starting activity 500 mCi, EtOH-containing HPLC eluent

Substance: [^18F]FET-βAG-TOCA
time for which stable once fully formulated ([1]; 1 Curie run, formulated in 6% EtOH/PBS (10 mL)): ≥ 6 h
Percentage of parent compound at time: T = 0 [1, 2]: 60%
Percentage of parent compound at time: T = 120 m [1, 2]: 60%
Percentage of parent compound at time: T = 240 m [1, 2]: 60%
Percentage of parent compound at time: T = 0 [1, 3]: 91%
Percentage of parent compound at time: T = 120 m [1, 3]: 91%
Percentage of parent compound at time: T = 240 m [1, 3]: 91%
Percentage of parent compound at time: T = 0 [1, 4]: 96%
Percentage of parent compound at time: T = 120 m [1, 4]: 96%
Percentage of parent compound at time: T = 240 m [1, 4]: 96%
Percentage of parent compound at time: T = 0 [1, 5]: 97%
Percentage of parent compound at time: T = 120 m [1, 5]: 97%
Percentage of parent compound at time: T = 240 m [1, 5]: 97%
Percentage of parent compound at time: T = 0 [1, 6]: 97%
Percentage of parent compound at time: T = 240 m [1, 6]: 97%
parent at T=0 min ([1]; HPLC solvent 25% MeCN (0.1% HCl), 75% H2O (0.1% HCl)+0.8% w/v EtOH, n=1, Entry 5, Table 2): 97%
parent at T=0 min ([1]; ascorbic acid in HPLC eluent (0.5% w/v), sodium ascorbate in collection vial and tC18 eluent): 97%
intact parent ([1]; starting with 0.5 Curies of fluorine-18): 91%
parent at T=0 ([1]; starting with 1 Curie of fluorine-18, radiolysis during HPLC purification and tC18 formulation): 62%

time for which stable (in the presence of BPDS): ≤ 20 min
time for which stable (in the presence of CuSO4): > 240 min
time for which stable (in the presence of Na-ascorbate): ≤ 20 min
Substance: βAG-TOCA
